In patent publication US12329158B2, “Large-scale methods of uniformly coating packaging surfaces with a volatile antimicrobial to preserve food freshness” (AGROFRESH INC., priority 2013, dated 2025):
≈ marks a conversion by molar mass, not a printed value. Like-named read-outs stand apart in the source and are kept apart here.

Columns and labels:
Escherichia coli = assay: In vitro volatile inhibition assay against bacteria (Example 8); format: cell-based; set-up: key: 0 = No colonies; 1 = Micro colonies not connected; 2 = Small colonies with some merging; 3 = Large colonies merging together; settings: 5.00 mg per disk
Experimental: For testing activity against bacteria pathogens, 12-Well (7 mL volume per well) microtiter plates are used for the in vitro inhibition assay for volatile antimicrobial compounds. A 3-mL volume of full-strength LB Agar is added to each well. After cooling, 15 μL of Escherichia coli, adjusted to an optical density of 0.02 to 0.035, and further diluted 1/10 is pipetted to the center of the agar and tilted to distribute uniformly. Small Whatman #1 filter disks (Cat. No. 1001-0155) are placed, in duplicate, on the underside of a polyethylene polymerase chain reaction (PCR) plate sealing film. For determination of the minimum inhibitory concentration (MIC), Compound A is diluted in acetone, and 5 mg of compound is added to the disks. The acetone is permitted to evaporate for 5 minutes. The headspace around the Escherichia coli inoculum is then sealed inside the well by the film with the adhering disk containing the fungicide. Plates are inverted, placed over the treated disks and sealed to prevent any of the chemical from flaking from the disk and falling onto the inoculated agar. After 3 days of storage at 4° C., cultures are transferred to 23° C. for an additional 2 days, and then evaluated for colony growth relative to control.

Botrytis cinerea [1] = assay: Gray mold on strawberry, contact assay (Example 23); format: in vivo
Experimental: Eight strawberries (per repetition, in triplicate) are placed in an industry standard 1-lb PET clamshell with the stem-end facing down.
Contact Assay: Compound A is dissolved in 85% methanol to achieve a final concentration of 250, 50, 10, or 2 mg/L. A 250 mL solution of each concentration is used to dip eight inoculated strawberry fruit for one-minute, performed in triplicate per rate. The dipped fruits are then placed back into the clamshells, which are then placed in a secondary container and incubated at 1° C. for 5 days. After incubation, fruits are evaluated for disease severity (scale 0 to 4, with ≤1 indicating marketable fruit and 4 indicating ≥50% of fruit surface covered by pathogen) up to 4 days at 21° C.

[2] = test system: C. krusei (or I. orientalis); assay: In vitro volatile assay, yeast infection species (Example 27); format: cell-based, Issatchenkia orientalis; settings: Pichia kudriavzevii
Experimental: More specifically, growth inhibition of yeast infection fungal species C. albicans and C. krusei (or I. orientalis) by volatile treatment of Compound 10 was assessed via a volatile assay.
Volatile assay: 6-well (16.5 mL volume per well) microtiter plates are used in an in vitro inhibition assay for Compound 10 (i.e., Compound A). A 7.5-mL volume of half strength PDA is added to each well. After drying, a mycelial plug (5 mm diameter) is aseptically obtained from actively growing cultures of C. albicans and C. krusei (or I. orientalis) and placed at the center of the plate with the mycelial side in contact with the agar. A Whatman #1 filter disk (Cat. No. 1001-325) is placed, in duplicate, on the underside of a polyethylene PCR plate sealing film. […] The acetone/methanol is permitted to evaporate for 5 minutes. The headspace around the inoculum is then sealed inside the well by the film with the adhering disk containing the fungicide and incubated inverted for 5 days at 28° C.

Aspergillus niger = assay: Volatile MIC assay (Example 11); format: cell-based; settings: A. niger
Experimental: (§1) A 3-mL volume of full-strength Potato Dextrose Agar (PDA) is added to each well. After cooling, 1 μL of 1×10^5 spores per mL of Botrytis cinerea, Penicillium expansum, Alternaria alternata, Glomerella cingulata, Penicillium digitatum, Monilinia fruticola, Aspergillus brasiliensis, Colletotrichum acutatum, Fusarium sambucinum, Phytophthora capsici, Geotrichum candidum, Aspergillus niger, Diplodia gossypina or Diaporthe citrii suspension is spotted onto the center of the agar. A Whatman #1 filter disk (Cat. No. 1001-0155) is placed, in duplicate, on the underside of a polyethylene PCR plate sealing film. […] The headspace around the inoculum is then sealed inside the well by the film with the adhering disk containing the fungicide by inverting the plates over the treated disks and sealing to prevent any of the chemical from flaking from the disk and falling onto the inoculated agar. After 3 days of storage at 23° C., cultures are evaluated for percent growth relative to control.

Geotrichum candidum = assay: Volatile MIC assay (Example 11); format: cell-based; settings: G. candidum
Experimental: as §1

Diaporthe citrii = assay: Volatile MIC assay (Example 11); format: cell-based; settings: D. citrii
Experimental: as §1

Botrytis cinerea [3] = assay: Volatile MIC assay (Example 11); format: cell-based; settings: B. cinerea
Experimental: as §1

Alternaria alternata = assay: Volatile MIC assay (Example 11); format: cell-based; settings: A. alternata
Experimental: as §1

Penicillium expansum = assay: Volatile MIC assay (Example 11); format: cell-based; settings: P. expansum
Experimental: as §1

Diplodia gossypina = assay: Volatile MIC assay (Example 11); format: cell-based; settings: Lasiodiplodia theobromae, D. gossypina
Experimental: as §1

Colletotrichum acutatum = assay: Volatile MIC assay (Example 11); format: cell-based; settings: C. acutatum
Experimental: as §1

Phytophthora capsici = assay: Volatile MIC assay (Example 11); format: cell-based; settings: P. capsici
Experimental: as §1

Aspergillus brasiliensis = assay: Volatile MIC assay (Example 11); format: cell-based; settings: A. brasiliensis
Experimental: as §1

Monilinia fruticola = assay: Volatile MIC assay (Example 11); format: cell-based; settings: M. fruticola
Experimental: as §1

Penicillium digitatum = assay: Volatile MIC assay (Example 11); format: cell-based; settings: P. digitatum
Experimental: as §1

Fusarium sambucinum = assay: Volatile MIC assay (Example 11); format: cell-based; settings: F. sambucinum
Experimental: as §1

Question: Which results are given for OB1OCc2cc(F)ccc21 [Compound A, 5-fluoro-1,3-dihydro-1-hydroxy-2,1-benzoxaborole]?
Answer: Colony Rating (Escherichia coli): 1; Disease Severity (0 to 4) (Botrytis cinerea [1]; 2 mg/L, Day 0): 0.0; Disease Severity (0 to 4) (Botrytis cinerea [1]; 2 mg/L, Day 1): 0.0; Disease Severity (0 to 4) (Botrytis cinerea [1]; 2 mg/L, Day 2): 0.6; Disease Severity (0 to 4) (Botrytis cinerea [1]; 2 mg/L, Day 3): 1.1; Disease Severity (0 to 4) (Botrytis cinerea [1]; 2 mg/L, Day 4): 1.9; Disease Severity (0 to 4) (Botrytis cinerea [1]; 10 mg/L, Day 0): 0.0; Disease Severity (0 to 4) (Botrytis cinerea [1]; 10 mg/L, Day 1): 0.0; Disease Severity (0 to 4) (Botrytis cinerea [1]; 10 mg/L, Day 2): 0.0; Disease Severity (0 to 4) (Botrytis cinerea [1]; 10 mg/L, Day 3): 0.3; Disease Severity (0 to 4) (Botrytis cinerea [1]; 10 mg/L, Day 4): 1.0; Disease Severity (0 to 4) (Botrytis cinerea [1]; 50 mg/L, Day 0): 0.0; Disease Severity (0 to 4) (Botrytis cinerea [1]; 50 mg/L, Day 1): 0.0; Disease Severity (0 to 4) (Botrytis cinerea [1]; 50 mg/L, Day 2): 0.0; Disease Severity (0 to 4) (Botrytis cinerea [1]; 50 mg/L, Day 3): 0.0; Disease Severity (0 to 4) (Botrytis cinerea [1]; 50 mg/L, Day 4): 0.0; Disease Severity (0 to 4) (Botrytis cinerea [1]; 250 mg/L, Day 0): 0.0; Disease Severity (0 to 4) (Botrytis cinerea [1]; 250 mg/L, Day 1): 0.0; Disease Severity (0 to 4) (Botrytis cinerea [1]; 250 mg/L, Day 2): 0.0; Disease Severity (0 to 4) (Botrytis cinerea [1]; 250 mg/L, Day 3): 0.0; Disease Severity (0 to 4) (Botrytis cinerea [1]; 250 mg/L, Day 4): 0.0; MIC ([2]; 120 h, read-out: minimum inhibitory concentration (MIC) for C. krusei): 35.7 µg/mL (≈ 235 µM); inhibition at 0.017 µg/mL ([2]; volatile, 0.017 mg/L, read-out: Growth Inhibition (%) C. krusei/I. orientalis): -1.3%; inhibition at 0.035 µg/mL ([2]; volatile, 0.035 mg/L, read-out: Growth Inhibition (%) C. krusei/I. orientalis): -1.4%; inhibition at 0.07 µg/mL ([2]; volatile, 0.07 mg/L, read-out: Growth Inhibition (%) C. krusei/I. orientalis): 0.5%; inhibition at 0.1 µg/mL ([2]; volatile, 0.1 mg/L, read-out: Growth Inhibition (%) C. krusei/I. orientalis): 0.4%; inhibition at 0.3 µg/mL ([2]; volatile, 0.3 mg/L, read-out: Growth Inhibition (%) C. krusei/I. orientalis): 1.2%; inhibition at 0.6 µg/mL ([2]; volatile, 0.6 mg/L, read-out: Growth Inhibition (%) C. krusei/I. orientalis): -5.2%; inhibition at […] ([2]; volatile, 1.1 mg/L, read-out: Growth Inhibition (%) C. krusei/I. orientalis): -0.2%; inhibition at […] ([2]; volatile, 2.2 mg/L, read-out: Growth Inhibition (%) C. krusei/I. orientalis): 18.2%; inhibition at […] ([2]; volatile, 4.5 mg/L, read-out: Growth Inhibition (%) C. krusei/I. orientalis): 22%; inhibition at […] ([2]; volatile, 8.9 mg/L, read-out: Growth Inhibition (%) C. krusei/I. orientalis): 30.5%; MIC (Aspergillus niger): 2.2 µg/mL (≈ 14.5 µM); MIC (Geotrichum candidum): 8.9 µg/mL (≈ 58.6 µM); MIC (Diaporthe citrii): 2.2 µg/mL (≈ 14.5 µM); MIC (Botrytis cinerea [3]): 2.2 µg/mL (≈ 14.5 µM); MIC (Alternaria alternata): 2.2 µg/mL (≈ 14.5 µM); MIC (Penicillium expansum): 1.1 µg/mL (≈ 7.24 µM); MIC (Diplodia gossypina): 1.1 µg/mL (≈ 7.24 µM); MIC (Colletotrichum acutatum): 4.4 µg/mL (≈ 29 µM); MIC (Phytophthora capsici): 1.1 µg/mL (≈ 7.24 µM); MIC (Aspergillus brasiliensis): 2.2 µg/mL (≈ 14.5 µM); MIC (Monilinia fruticola): 2.2 µg/mL (≈ 14.5 µM); MIC (Penicillium digitatum): 2.2 µg/mL (≈ 14.5 µM); MIC (Fusarium sambucinum): 1.1 µg/mL (≈ 7.24 µM)
